Experiment [1] concerns the target T1, PRMT5-MEP50 enzyme complex (Homo sapiens, UniProt O14744).
T1 construct: Full-length (FL)-PRMT5-MEP50 enzyme complex (recombinant proteins from baculovirus-transfected Sf21 cells: FL-PRMT5; MW=73837 kDa and FL-MEP50; MW=38614); made in house; host or cells: baculovirus-transfected Sf21 cells
Description: PRMT5-MEP50 Enzyme Methylation Assay (Version A). Format: biochemical. As to the method:
PRMT5-MEP50 Enzyme Methylation Assay (Version A)
PRMT5-MEP50 biochemical assay is a direct measurement of the methylation activity of the enzyme complex on a short peptide substrate derived from the N-terminus of H4 histone. Methylation experiment was performed with recombinant PRMT5-MEP50 protein complex. The assessment of inhibitory effect of small molecules was measured by the effectiveness of the compounds to inhibit this reaction (EC50).
In this assay, the potency (EC50) of each compound was determined from a twenty-point (1:2 serial dilution; top compound concentration of 100000 nM) titration curve using the following outlined procedure. To each well of a white ProxiPlus 384 well-plate, 100 nL of compound (1% DMSO in final assay volume of 10 μL) was dispensed, followed by the addition of 8 μL of 1× assay buffer (50 mM Bicine pH 8.0, 1 mM DTT, 0.004% Tween20, 0.01% BSA) containing 1.25 nM of Full-length (FL)-PRMT5-MEP50 enzyme complex (recombinant proteins from baculovirus-transfected Sf21 cells: FL-PRMT5; MW=[…] and FL-MEP50; MW=38614) and 1 μL of 150 μM S-(5′-Adenosyl)-L-Methionine Chloride (SAM). A plate was sealed and placed in a 37° C. humidified chamber for a 60 minutes pre-incubation with compound. Subsequently, each reaction was initiated by the addition of 1 μL 1× assay buffer containing 750 nM biotinylated H4R3 (MeI) peptide. The final reaction in each well of 10 μL consists of 1.0 nM PRMT5-MEP50, 75 nM biotinylated-peptide, and 15 μM SAM. Methylation reactions were allowed to proceed for 150 minutes in a sealed plate at 37° C. Reactions were immediately quenched by the addition of 1 μL of 5% formic acid. A plate was then frozen and shipped to SAMDI™ Tech Inc. to determine the percent conversion from H4R3 (MeI) to H4R3 (Me2). Dose-response curves were generated by plotting percent effect (% product conversion; Y-axis) vs. Log 10 compound concentrations (X-axis). EC50 values were determined by non-linear regression according to models for either sigmoidal (4 parameters) or biphasic (7 parameters) dose-response curves.

In the next experiment the target is T2, PRMT5 (Homo sapiens, UniProt O14744).
T2 construct: seeded with 4000 MCF-7 cells in 30 μl media; endogenous in cells; host or cells: MCF-7 cells
Description: PRMT5 Cell Target Engagement (TE) Assay. Conditions: MCF-7 cells, treated for 3 days, symmetric dimethylation of arginine (SDMA) by high content imaging. Format: cell-based. Summed up:
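Readout is single-cell nuclear symmetric-dimethylarginine immunofluorescence (Alexa488), normalized to DMSO-treated cells. Compounds were applied to MCF-7 cells for 3 days at 37 °C, top concentration 10000 nM in 1:3 steps over ten points; curves fitted with 4-parameter robust fit.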

The target in experiment [2] is T1, PRMT5-MEP50 enzyme complex. In words: PRMT5-MEP50 Enzyme Methylation Assay (Version B). Format: biochemical. Summed up: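 Recombinant full-length PRMT5-MEP50 (0.5 nM, Sf21-expressed) pre-incubated 30 min at 37 °C with compound (20-point, 1:2, top 100000 nM), then reacted 150 min at 37 °C with 75 nM biotinylated H4R3 peptide and 15 μM SAM in Bicine pH 8.0. Formic acid quench; SAMDI MS conversion to Me2; EC50 by sigmoidal or biphasic fit.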

Setting [3] is: only one EC50 shown: 4 parameters single site sigmoidal model, 60 min pre-incubation with SAM, read-out: Enzyme Methylation Assay Version A (EC50).
The mark [4] stands for this setting: first of two EC50s: 7 parameters biphasic model, read-out: Enzyme Methylation Assay Version A (EC50_1).
The mark [5] stands for this setting: second of two EC50s: 7 parameters biphasic model, read-out: Enzyme Methylation Assay Version A (EC50_2).
The mark [6] stands for this setting: first of two EC50s: 7 parameters biphasic model, read-out: Enzyme Methylation Assay Version B (EC50_1).
[7] abbreviates: second of two EC50s: 7 parameters biphasic model, read-out: Enzyme Methylation Assay Version B (EC50_2).

T1 sequence (O14744 whole entry): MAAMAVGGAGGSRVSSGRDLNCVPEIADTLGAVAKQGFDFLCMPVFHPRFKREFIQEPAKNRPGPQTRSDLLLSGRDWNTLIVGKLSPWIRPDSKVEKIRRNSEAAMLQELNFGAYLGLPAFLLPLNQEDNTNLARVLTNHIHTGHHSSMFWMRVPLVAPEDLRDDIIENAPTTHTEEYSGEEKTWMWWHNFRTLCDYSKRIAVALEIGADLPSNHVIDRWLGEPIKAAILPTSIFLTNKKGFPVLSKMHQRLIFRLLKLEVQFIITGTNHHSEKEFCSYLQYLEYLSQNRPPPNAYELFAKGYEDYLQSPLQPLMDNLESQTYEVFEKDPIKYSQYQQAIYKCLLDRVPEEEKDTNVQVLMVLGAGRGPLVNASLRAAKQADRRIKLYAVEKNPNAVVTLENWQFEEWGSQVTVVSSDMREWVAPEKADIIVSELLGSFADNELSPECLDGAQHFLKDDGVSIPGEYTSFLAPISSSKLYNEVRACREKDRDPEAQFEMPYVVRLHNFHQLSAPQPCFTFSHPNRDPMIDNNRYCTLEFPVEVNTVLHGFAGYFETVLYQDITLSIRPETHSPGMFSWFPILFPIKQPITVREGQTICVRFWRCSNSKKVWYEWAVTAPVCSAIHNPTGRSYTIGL
T1 sequence (Q9BQA1 whole entry partner): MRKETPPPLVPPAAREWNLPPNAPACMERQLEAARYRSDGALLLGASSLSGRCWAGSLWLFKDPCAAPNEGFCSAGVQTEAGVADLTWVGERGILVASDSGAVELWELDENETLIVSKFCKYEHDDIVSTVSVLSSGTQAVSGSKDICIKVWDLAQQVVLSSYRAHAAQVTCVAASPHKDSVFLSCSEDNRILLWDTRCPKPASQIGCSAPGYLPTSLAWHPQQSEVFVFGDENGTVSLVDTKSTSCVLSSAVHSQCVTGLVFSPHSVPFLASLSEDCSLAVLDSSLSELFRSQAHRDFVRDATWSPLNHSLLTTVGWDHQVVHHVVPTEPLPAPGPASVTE
T2 sequence (O14744 whole entry): as the sequence (O14744 whole entry) above
T2 sequence (Q9BQA1 whole entry partner): as the sequence (Q9BQA1 whole entry partner) above

With `O=C(c1cn2cc(Br)ccc2n1)N1CC[C@H](N2CCc3ccccc3C2)[C@@H](O)C1` (single isomer, unassigned) [Example 1], the values for the EC50 (in experiment [1] (setting [3]); on PRMT5) were 1.1 nM and 9.8 nM, respectively.

Take `CC(=O)N1CCC(Nc2cc(C(=O)N3CCC(N4CCc5ccccc5C4)C(O)C3(C)C)ccn2)CC1` (single isomer, unassigned) [Example 22, l-(4-((4-(4-(3,4-dihydroisoquinolin-2(1H)-yl)-3-hydroxy-2,2-dimethylpiperidine-1-carbonyl)pyridin-2-yl)amino)piperidin-1-yl)ethan-1-one]: the EC50 was 159 nM in experiment [1] (setting [4]), 58900 nM in experiment [1] (setting [5]) and more than 10000 nM on PRMT5.

In the case of `CC(=O)N1CCC(Nc2cc(C(=O)N3CCC(N4CCc5ccccc5C4)C(O)C3(C)C)ccn2)CC1` (single isomer, unassigned) [Example 23, l-(4-((4-(4-(3,4-dihydroisoquinolin-2(1H)-yl)-3-hydroxy-2,2-dimethylpiperidine-1-carbonyl)pyridin-2-yl)amino)piperidin-1-yl)ethan-1-one], the EC50 in experiment [1] (setting [4]) was approximately 36 nM; in experiment [1] (setting [5]), 31600 nM; on PRMT5, 4690 nM.

As to `COC(C)c1cc(Br)cn2cc(C(=O)N3CC[C@H](N4CCc5ccccc5C4)[C@@H](O)C3)nc12` (single isomer, unassigned) [Example 68, (6-bromo-8-((R or S)-1-methoxyethyl)imidazo[1,2-a]pyridin-2-yl)((3S,4S)-4-(3,4-dihydroisoquinolin-2(1H)-yl)-3-hydroxypiperidin-1-yl)methanone], the values for the EC50 (in experiment [1] (setting [3]); at PRMT5) were 0.4 nM and 2.2 nM, respectively.

Take `O=C1Nc2cc(C(=O)N3CC[C@H](N4CCc5ccccc5C4)[C@@H](O)C3)ccc2OC1C1CC1` (single isomer, unassigned) [Example 80]: the EC50 is 0.7 nM in experiment [1] (setting [3]) and 2.5 nM at PRMT5.

On to `O=C1Nc2cc(C(=O)N3CC[C@H](N4CCc5ccccc5C4)[C@@H](O)C3)ccc2OC1C1CC1` (single isomer, unassigned) [Example 81], for which the EC50 was 1.6 nM in experiment [1] (setting [4]), 5010 nM in experiment [1] (setting [5]) and 59 nM on PRMT5.

Regarding `CC1(C)CC(C2Oc3ccc(C(=O)N4CC[C@H](N5CCc6ccccc6C5)[C@@H](O)C4)cc3NC2=O)CO1` (single isomer, unassigned) [Example 84], the EC50 in experiment [1] (setting [3]) was 0.9 nM; on PRMT5 it was 5.6 nM.

Turning to `CC1(C)CC(C2Oc3ccc(C(=O)N4CC[C@H](N5CCc6ccccc6C5)[C@@H](O)C4)cc3NC2=O)CO1` (single isomer, unassigned) [Example 85], the EC50 in experiment [1] (setting [3]) came to 1.3 nM; at PRMT5, 6.4 nM.

`CC(=O)N1CCC(Nc2cc(C(=O)N3CC[C@H](N4CCc5ccccc5C4)[C@@H](O)C3)c(F)cn2)C1` (single isomer, unassigned) [Example 113]: the EC50 worked out at 3.1 nM in experiment [1] (setting [4]), 9550 nM in experiment [1] (setting [5]) and 50 nM at PRMT5.

On to `O=C(c1cc2n(n1)CCN(CC(F)(F)F)C2)N1CC[C@H](N2CCc3ccccc3C2)[C@@H](O)C1` [Example 50, ((3S,4S)-4-(3,4-dihydroisoquinolin-2(1H)-yl)-3-hydroxypiperidin-1-yl)(5-(2,2,2-trifluoroethyl)-4,5,6,7-tetrahydropyrazolo[1,5-a]pyrazin-2-yl)methanone], for which the figures for the EC50 (in experiment [2] (setting [6]); in experiment [2] (setting [7]); on PRMT5) were approximately 76 nM, 33500 nM and 4260 nM, respectively.

As to `O=C(c1ccc(-c2ncnn2C2CC2)cc1)N1CC[C@H](N2CCc3ccccc3C2)[C@@H](O)C1` [Example 60, (4-(1-cyclopropyl-1H-1,2,4-triazol-5-yl)phenyl)((3S,4S)-4-(3,4-dihydroisoquinolin-2(1H)-yl)-3-hydroxypiperidin-1-yl)methanone], the EC50 in experiment [2] (setting [6]) is 14 nM; in experiment [2] (setting [7]), 4680 nM; at PRMT5, 435 nM.

In the case of `O=C(c1ccc(-c2ncnn2C2CC2)cc1)N1CC[C@@H](N2CCc3ccccc3C2)[C@H](O)C1` [Example 61, (4-(1-cyclopropyl-1H-1,2,4-triazol-5-yl)phenyl)((3R,4R)-4-(3,4-dihydroisoquinolin-2(1H)-yl)-3-hydroxypiperidin-1-yl)methanone], the EC50 in experiment [2] (only one EC50 shown: 4 parameters single site sigmoidal model, 30 min pre-incubation, read-out: Enzyme Methylation Assay Version B (EC50)) was 2550 nM; at PRMT5 it was more than 10000 nM.

On to `COc1cnc(NC2CCN(C(C)=O)CC2)cc1C(=O)N1CC[C@H](N2CCc3ccccc3C2)[C@@H](O)C1` [Example 88, 1-(4-((4-((3S,4S)-4-(3,4-dihydroisoquinolin-2(1H)-yl)-3-hydroxypiperidine-1-carbonyl)-5-methoxypyridin-2-yl)amino)piperidin-1-yl)ethan-1-one], for which the EC50 in experiment [2] (setting [6]) was 9.3 nM; in experiment [2] (setting [7]) it was 2040 nM; on PRMT5, 14 nM.

On to `CC1(C)CC(=O)Nc2cc(C(=O)N3CC[C@@H](N4CCc5ccccc5C4)[C@H](O)C3)ccc21` [Example 95, 7-((3R,4R)-4-(3,4-dihydroisoquinolin-2(1H)-yl)-3-hydroxypiperidine-1-carbonyl)-4,4-dimethyl-3,4-dihydroquinolin-2(1H)-one], for which the EC50 in experiment [2] (setting [6]) is approximately 62 nM; in experiment [2] (setting [7]) it was 39400 nM; at PRMT5 it was 2710 nM.

With `CC1(C)CC(=O)Nc2cc(C(=O)N3CC[C@H](N4CCc5ccccc5C4)[C@@H](O)C3)ccc21` [Example 96, 7-((3S,4S)-4-(3,4-dihydroisoquinolin-2(1H)-yl)-3-hydroxypiperidine-1-carbonyl)-4,4-dimethyl-3,4-dihydroquinolin-2(1H)-one], the results for the EC50 (in experiment [2] (setting [6]); in experiment [2] (setting [7]); at PRMT5) were approximately 14 nM, 15100 nM and 331 nM, respectively.

For the compound `CC1(C)OC(=O)Nc2cc(C(=O)N3CC[C@H](N4CCc5ccccc5C4)[C@@H](O)C3)ccc21` [Example 97, 7-((3S,4S)-4-(3,4-dihydroisoquinolin-2(1H)-yl)-3-hydroxypiperidine-1-carbonyl)-4,4-dimethyl-1,4-dihydro-2H-benzo[d][1,3]oxazin-2-one], the EC50 in experiment [2] (setting [6]) is 5.4 nM; in experiment [2] (setting [7]), 2850 nM; at PRMT5, 59 nM.

For `CC1(C)OC(=O)Nc2cc(C(=O)N3CC[C@@H](N4CCc5ccccc5C4)[C@H](O)C3)ccc21` [Example 98, 7-((3R,4R)-4-(3,4-dihydroisoquinolin-2(1H)-yl)-3-hydroxypiperidine-1-carbonyl)-4,4-dimethyl-1,4-dihydro-2H-benzo[d][1,3]oxazin-2-one], the EC50 in experiment [2] (setting [6]) was approximately 118 nM; in experiment [2] (setting [7]), more than 100000 nM; on PRMT5 it was 5830 nM.

With `CS(=O)(=O)N1CCC(Nc2cc(C(=O)N3CC[C@H](N4CCc5ccccc5C4)[C@@H](O)C3)c(F)cn2)CC1` [Example 105, ((3S,4S)-4-(3,4-dihydroisoquinolin-2(1H)-yl)-3-hydroxypiperidin-1-yl)(5-fluoro-2-((1-(methylsulfonyl)piperidin-4-yl)amino)pyridin-4-yl)methanone], the EC50 in experiment [2] (setting [6]) was found to be 3.2 nM; in experiment [2] (setting [7]), 1040 nM; at PRMT5, 15 nM.

`CCOC(=O)N1CCC(Nc2cc(C(=O)N3CC[C@H](N4CCc5ccccc5C4)[C@@H](O)C3)c(F)cn2)CC1` [Example 106, ethyl 4-((4-((3S,4S)-4-(3,4-dihydroisoquinolin-2(1H)-yl)-3-hydroxypiperidine-1-carbonyl)-5-fluoropyridin-2-yl)amino)piperidine-1-carboxylate]: the values for the EC50 (in experiment [2] (setting [6]); in experiment [2] (setting [7]); at PRMT5) were 1.9 nM, 496 nM and 6.2 nM, respectively.
